Data on twelve compounds can be found in patent publication US8198279B2, “Pyrido[2,3-b]pyrazin-8-substituted compounds and their use” (Institute of Cancer Research: Royal Cancer Hospital (The), priority 2007, dated 2012).

The structures appear in SMILES notation. “And” between values parts separate entries of the source, which are not always exact repeats. Equal entries are not always repeated. Some results are limits rather than exact numbers.

The experiment has as its target T1, B-RAF (Homo sapiens, UniProt P15056, V600E).
T1 construct: made in house
Description: DELFIA Kinase Assay. Type of experiment: biochemical. To be noted: 100 μM ATP, GST-MEK substrate. The procedure: Biological Methods—DELFIA Kinase Assay
Compounds were assessed by a kinase assay performed according to the following protocol.
DKB1 (DKB with B-RAF and MEK Protein):
Combine 4950 μL of DKB and 50 μL of 2.5 mg/ml GST-MEK stock (to give […] of MEK per 40 μL). Then add 22.5 μL of B-RAF to give ˜0.2 μL of B-RAF per 40 μL.
100 mM stock, dilute to 500 μM to give 100 μM final concentration in assay.
• 1. Preblock wells with 5% milk in TBS for 1 hour. • 2. Wash wells with 3× with 200 μL TBS. • 3. Plate out 40 μL of DKB1 for all inhibitors (test compounds), DMSO control, and optionally other control compounds. • 4. Plate out 40 μL of DKB2 for BO and EV wells. • 5. Add inhibitors (test compounds) at 0.5 μL per well according to desired plate layout. • 6. Add 0.5 μL DMSO to vehicle control wells. • 7. Add 2 μL of B-RAF to BO and EV wells. • 8. Pre-incubate with inhibitors (test compounds) for 10 minutes at room temperature with shaking. • 9. Add 10 μL of 500 μM ATP stock, in DKB, to give 100 μM assay concentration. • 10. Seal plates with TopSeal and incubate at room temperature with shaking for 45 minutes. • 11. Wash plates 3× with 200 μL 0.1% Tween20/Water to terminate reaction. • 12. Add 50 μL per well of antibody mix and incubate for 1 hour at room temperature with shaking. • 13. Wash plates 3× with 200 μL 0.1% Tween20/Water. • 14. Add 100 μL DELFIA enhancement solution per well, cover in foil, and incubate at room temperature for 30 minutes with shaking. • 15. Read on Victor using Europium protocol.
Values for the blank (Empty Vector) are subtracted from all values. The DMSO controls are set as 100% activity and assay points (the response) are calculated as a percentage of the DMSO control. Data are plotted using Graphpad Prism software and a non-linear regression line is calculated using a variable slope sigmoidal dose-response equation (Y=Bottom+(Top−Bottom)/(1+10^((LogEC50−X)*HillSlope)) where X is the logarithm of concentration. Y is the response). The IC50 generated by this procedure is the concentration of the drug that produces a percentage control fluorescence value midway between the saturation, and zero-effect plateaus. Three independent assays are usually performed and the mean IC50 is reported.

T1 sequence (P15056 whole entry V600E): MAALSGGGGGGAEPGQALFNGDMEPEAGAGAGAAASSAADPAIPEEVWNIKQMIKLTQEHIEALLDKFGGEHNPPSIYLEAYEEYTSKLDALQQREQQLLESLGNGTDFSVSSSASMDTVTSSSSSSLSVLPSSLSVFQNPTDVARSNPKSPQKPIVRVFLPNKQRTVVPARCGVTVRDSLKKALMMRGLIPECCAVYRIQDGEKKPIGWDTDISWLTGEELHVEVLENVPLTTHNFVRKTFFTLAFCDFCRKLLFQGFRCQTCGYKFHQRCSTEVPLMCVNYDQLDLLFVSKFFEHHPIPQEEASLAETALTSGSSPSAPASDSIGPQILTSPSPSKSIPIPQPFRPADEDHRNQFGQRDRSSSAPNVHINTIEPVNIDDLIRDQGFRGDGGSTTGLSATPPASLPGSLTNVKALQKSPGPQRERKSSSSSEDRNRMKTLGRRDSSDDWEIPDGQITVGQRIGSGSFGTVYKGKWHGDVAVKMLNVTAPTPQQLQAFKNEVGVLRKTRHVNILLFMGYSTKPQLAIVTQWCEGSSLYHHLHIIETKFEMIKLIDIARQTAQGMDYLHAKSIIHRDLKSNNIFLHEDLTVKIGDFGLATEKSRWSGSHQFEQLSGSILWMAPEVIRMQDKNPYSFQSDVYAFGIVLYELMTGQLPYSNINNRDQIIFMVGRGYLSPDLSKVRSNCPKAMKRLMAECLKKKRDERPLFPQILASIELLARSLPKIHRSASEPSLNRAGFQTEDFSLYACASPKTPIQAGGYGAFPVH

As a reminder, the IC50 is the concentration that inhibits the measured activity by half. Lower therefore signals greater potency in that assay. On to `Cc1ccc(-n2nc(C(C)(C)C)cc2NC(=O)Nc2ccc(Oc3ccnc4[nH]c(=O)cnc34)cc2F)cc1` [AA-018, 1-(3-tert-butyl-1-p-tolyl-1H-pyrazol-5-yl)-3-(2-fluoro-4-(3-oxo-3,4-dihydropyrido[3,2-b]pyrazin-8-yloxy)phenyl)urea], for which the IC50 was less than 100 nM.

`Cc1nc2nccc(Oc3ccc(NC(=O)Nc4cc(C(C)(C)C)nn4-c4ccccc4)c(F)c3)c2[nH]c1=O` [AA-041, 1-(3-Tert-butyl-1-phenyl-1H-pyrazol-5-yl)-3-(2-fluoro-4-(3-methyl-2-oxo-1,2-dihydropyrido[2,3-b]pyrazin-8-yloxy)phenyl)urea]: the IC50 was in the range of 100 to 1000 nM.

For the compound `Cc1nc2nccc(Oc3ccc(NC(=O)Nc4cc(C(C)(C)C)nn4-c4ccccc4)c4ccccc34)c2[nH]c1=O` [AA-035, 1-(3-tert-butyl-1-phenyl-1H-pyrazol-5-yl)-3-(4-(3-methyl-2-oxo-1,2-dihydropyrido[2,3-b]pyrazin-8-yloxy)naphthalen-1-yl)urea], the IC50 was 100 to 1000 nM.

Take `CSc1cc(Oc2ccnc3ncc(=O)[nH]c23)ccc1NC(=O)Nc1ccc(Cl)c(C(F)(F)F)c1` [AA-045, 1-(4-chloro-3-(trifluoromethyl)phenyl)-3-(2-(methylthio)-4-(2-oxo-1,2-dihydropyrido[2,3-b]pyrazin-8-yloxy)phenyl)urea]: the IC50 is less than 100 nM.

As to `Cc1nc2nccc(Oc3ccc(NC(=O)Nc4cc(C(F)(F)F)ccc4F)c(F)c3)c2[nH]c1=O` [AA-049, 1-(2-fluoro-4-(3-methyl-2-oxo-1,2-dihydropyrido[3,2-b]pyrazin-8-yloxy)phenyl)-3-(2-fluoro-5-(trifluoromethyl)phenyl)urea], the half-inhibitory concentration (IC50) was < 1000 nM and 100 to 1000 nM.

As to `O=C(Nc1cccc(Oc2ccnc3ncc(=O)[nH]c23)c1)Nc1cc(C(F)(F)F)ccc1F` [AA-032, 1-(2-fluoro-5-(trifluoromethyl)phenyl)-3-(3-(2-oxo-1,2-dihydropyrido[2,3-b]pyrazin-8-yloxy)phenyl)urea], the IC50 is less than 100 nM.

For `Cc1ccc(-n2nc(C(C)(C)C)cc2NC(=O)Nc2cccc(Oc3ccnc4ncc(=O)[nH]c34)c2)cc1` [AA-031, 1-(3-tert-butyl-1-p-tolyl-1H-pyrazol-5-yl)-3-(3-(2-oxo-1,2-dihydropyrido[2,3-b]pyrazin-8-yloxy)phenyl)urea], the IC50 is < 1000 nM and 100 to 1000 nM.

In the case of `Nc1nc2c(Oc3ccc(NC(=O)Nc4cc(C(F)(F)F)ccc4F)c4ccccc34)ccnc2[nH]c1=O` [AA-015, 1-(4-(2-amino-3-oxo-3,4-dihydropyrido[2,3-b]pyrazin-8-yloxy)naphthalen-1-yl)-3-(2-fluoro-5-(trifluoromethyl)phenyl)urea], the IC50 was less than 100 nM.

For the compound `O=C(Nc1ccc(Oc2ccnc3ncc(=O)[nH]c23)cc1)Nc1ccc(Cl)c(C(F)(F)F)c1` [AA-042, 1-(4-chloro-3-(trifluoromethyl)phenyl)-3-(4-(2-oxo-1,2-dihydropyrido[2,3-b]pyrazin-8-yloxy)phenyl)urea], the IC50 is < 1000 nM and 100 to 1000 nM.

With `O=C(Nc1ccc(Oc2ccnc3ncc(=O)[nH]c23)cc1)Nc1cc(C(F)(F)F)ccc1F` [AA-043, 1-(2-fluoro-5-(trifluoromethyl)phenyl)-3-(4-(2-oxo-1,2-dihydropyrido[2,3-b]pyrazin-8-yloxy)phenyl)urea], the IC50 lay within 100 to 1000 nM.

Turning to `O=C(Nc1ccc(Oc2ccnc3[nH]c(=O)cnc23)cc1)Nc1ccc(Cl)c(C(F)(F)F)c1` [AA-020, 1-(4-chloro-3-(trifluoromethyl)phenyl)-3-(4-(3-oxo-3,4-dihydropyrido[2,3-b]pyrazin-8-yloxy)phenyl)urea], the IC50 is less than 100 nM.

`Nc1nc2nccc(Oc3ccc(NC(=O)Nc4cc(C(F)(F)F)ccc4F)c(F)c3)c2[nH]c1=O` [AA-022, 1-(4-(3-amino-2-oxo-1,2-dihydropyrido[2,3-b]pyrazin-8-yloxy)-2-fluorophenyl)-3-(2-fluoro-5-(trifluoromethyl)phenyl)urea]: the IC50 is < 1000 nM and 100 to 1000 nM.
